Common to all, as to format: in vivo
Assay [1] concerns Solanum nigrum (SOLNI). The assay is described as follows: Pre-emergence biological efficacy, glasshouse pot test. Conditions: 312 h, pre-emergence, 1,000 g/ha, evaluated after 13 days (100=total damage; 0=no damage), read-out: Percentage damage SOLNI. The method, boiled down: (§1)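 Visual phytotoxicity (0 no damage, 100 total damage) assessed 13 d after treatment. Soil-sown pots sprayed one day post-sowing; dose 1000 or 250 g/ha; formulation in acetone/water 50:50, 0.5% Tween 20.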

Assay [2] concerns Setaria faberi (SETFA). The description is as above. The note with it: 312 h, pre-emergence, 1,000 g/ha, evaluated after 13 days (100=total damage; 0=no damage), read-out: Percentage damage SETFA. The method, boiled down:
as §1

Assay [3] deals with Amaranthus retoflexus (AMARE). The description is as above. The note with it: Amaranthus retroflexus, 312 h; pre-emergence, 1,000 g/ha, evaluated after 13 days (100=total damage; 0=no damage); read-out: Percentage damage AMARE. The method in brief:
as §1

Assay [4] concerns Ipomea hederaceae (IPOHE). Described as above. Conditions: Ipomoea hederacea, 312 h; pre-emergence, 1,000 g/ha, evaluated after 13 days (100=total damage; 0=no damage); read-out: Percentage damage IPOHE. The method, boiled down:
as §1

In assay [5] the test system is Echinochloa crus-galli (ECHCG). The assay is described as above. Conditions: 312 h, pre-emergence, 1,000 g/ha, evaluated after 13 days (100=total damage; 0=no damage), read-out: Percentage damage ECHCG. The method in brief: as §1
The test system of assay [6] is Alopecurus myosuroides (ALOMY). The assay is described as above. The note with it: 312 h, pre-emergence, 1,000 g/ha, evaluated after 13 days (100=total damage; 0=no damage), read-out: Percentage damage ALOMY. The method in brief: as §1
The subject of assay [7] is Solanum nigrum (SOLNI). The assay is described as follows: Post-emergence biological efficacy, glasshouse pot test. The note with it: 312 h, post-emergence, 1,000 g/ha, evaluated after 13 days (100=total damage; 0=no damage), read-out: Percentage damage caused to weed species, SOLNI. The method, boiled down: (§2)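 Pot-grown weeds were sprayed 8 days after sowing with test compound in acetone/water (50:50) with 0.5% Tween 20 at 1000 or 250 g/ha. Glasshouse at 24/16° C day/night, 14 h light, 65% humidity. Damage scored 0-100 (100 = total damage) after 13 days.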

Assay [8] concerns Setaria faberi (SETFA). Described as above. The note with it: 312 h, post-emergence, 1,000 g/ha, evaluated after 13 days (100=total damage; 0=no damage), read-out: Percentage damage caused to weed species, SETFA. The method in brief: as §2
The test system of assay [9] is Amaranthus retoflexus (AMARE). The assay is described as above. Conditions: Amaranthus retroflexus, 312 h; post-emergence, 1,000 g/ha, evaluated after 13 days (100=total damage; 0=no damage); read-out: Percentage damage caused to weed species, AMARE. The method in brief: as §2
For assay [10], the system named is Ipomea hederaceae (IPOHE). The assay is described as above. The note with it: Ipomoea hederacea, 312 h; post-emergence, 1,000 g/ha, evaluated after 13 days (100=total damage; 0=no damage); read-out: Percentage damage caused to weed species, IPOHE. The method in brief:
as §2

The subject of assay [11] is Echinochloa crus-galli (ECHCG). Described as above. The note with it: 312 h, post-emergence, 1,000 g/ha, evaluated after 13 days (100=total damage; 0=no damage), read-out: Percentage damage caused to weed species, ECHCG. The method, boiled down: as §2
The test system of assay [12] is Alopecurus myosuroides (ALOMY). The description is as above. Conditions: 312 h, post-emergence, 1,000 g/ha, evaluated after 13 days (100=total damage; 0=no damage), read-out: Percentage damage caused to weed species, ALOMY. The method, boiled down:
as §2

For the molecule `COC(=O)c1nc(C2CC2)nc(NCC(F)c2ccc(Br)cc2F)c1Cl` (stereo not drawn) [Compound 4-240, 4-[2-(4-Bromo-2-fluorophenyl)-2-fluoro-ethylamino]-5-chloro-2-cyclopropyl-6-methoxycarbonyl-pyrimidine], the pest or weed control at 1000 g/ha in the assay with Solanum nigrum (SOLNI) [1] is 10%; in the assay with Setaria faberi (SETFA) [2] it was 0%; in assay [3], 30%; in [4], 0%; in assay [5], 0%; in [6] it was 0%. The pest or weed control at 1000 g/ha turned out to be 70% in the assay on Solanum nigrum (SOLNI) [7]; 30% in the assay on Setaria faberi (SETFA) [8]; 100% in assay [9]; 60% in [10]; 0% in assay [11]; 10% in assay [12].
For the molecule `COC(=O)c1nc(C2CC2)nc(NCC(C)(F)c2cccc(Cl)c2)c1Cl` (stereo not drawn) [Compound 4-241, 5-Chloro-4-[2-(3-chlorophenyl)-2-fluoro-propylamino]-2-cyclopropyl-6-methoxycarbonyl-pyrimidine], the pest or weed control at 1000 g/ha with Solanum nigrum (SOLNI) [1] is 0%; with Setaria faberi (SETFA) [2], 0%; in assay [3], 30%; in assay [4] it was 0%; in assay [5] it was 0%; in assay [6], 0%. In addition, the pest or weed control at 1000 g/ha with Solanum nigrum (SOLNI) [7] amounted to 70%; with Setaria faberi (SETFA) [8] it was 30%; in assay [9], 60%; in assay [10], 60%; in [11] it was 10%; in assay [12] it was 0%.
`COC(=O)c1nc(C2CC2)nc(NCC(C)(F)c2cccc(C(F)(F)F)c2)c1Cl` (stereo not drawn) [Compound 4-242, 5-Chloro-2-cyclopropyl-4-[2-fluoro-2-(3-trifluoromethyl-phenyl)propyl-amino]-6-methoxy-carbonylpyrimidine]: the pest or weed control at 1000 g/ha in the assay with Solanum nigrum (SOLNI) [1] came to 0%; with Setaria faberi (SETFA) [2] it was 0%; in assay [3] it was 10%; in assay [4], 10%; in [5], 0%; in assay [6], 0%. In addition, the pest or weed control at 1000 g/ha with Solanum nigrum (SOLNI) [7] came out at 60%; in the assay on Setaria faberi (SETFA) [8], 10%; in assay [9], 90%; in assay [10], 50%; in [11] it was 0%; in assay [12], 0%.
For the molecule `COC(=O)c1nc(C2CC2)nc(NCC(C)(F)c2ccc(Cl)cc2Cl)c1Cl` (stereo not drawn) [Compound 4-243, 5-Chloro-2-cyclopropyl-4-[2-(2,4-dichlorophenyl)-2-fluoro-propylamino]-6-methoxycarbonyl-pyrimidine], the pest or weed control at 1000 g/ha stood at 10% in the assay on Solanum nigrum (SOLNI) [1]; 0% with Setaria faberi (SETFA) [2]; 40% in assay [3]; 0% in [4]; 0% in assay [5]; 0% in assay [6]. Further, the pest or weed control at 1000 g/ha in the assay on Solanum nigrum (SOLNI) [7] was found to be 70%; in the assay on Setaria faberi (SETFA) [8], 20%; in [9] it was 80%; in [10], 60%; in assay [11] it was 10%; in [12] it was 0%.
In the case of `CCCC(F)(CNc1nc(C2CC2)nc(C(=O)OC)c1Cl)c1ccc(Cl)cc1Cl` (stereo not drawn) [Compound 4-244, 5-Chloro-2-cyclopropyl-4-[2-(2,4-dichloro-phenyl)-2-fluoro-pentylamino]-6-methoxycarbonyl-pyrimidine], the pest or weed control at 1000 g/ha came to 0% with Solanum nigrum (SOLNI) [1]; 0% with Setaria faberi (SETFA) [2]; 30% in [3]; 0% in assay [4]; 0% in [5]; 0% in assay [6]. Besides, the pest or weed control at 1000 g/ha is 20% in the assay on Solanum nigrum (SOLNI) [7]; 0% in the assay with Setaria faberi (SETFA) [8]; 20% in [9]; 50% in assay [10]; 0% in assay [11]; 0% in [12].
In the case of `COC(=O)c1nc(C2CC2)nc(NCCCN2CCCC2=O)c1Cl` [Compound 4-246, 5-Chloro-2-cyclopropyl-6-methoxycarbonyl-4-[3-(2-oxo-pyrrolidin-1-yl)propylamino]-pyrimidine], the pest or weed control at 1000 g/ha in the assay with Solanum nigrum (SOLNI) [1] is 20%; in the assay on Setaria faberi (SETFA) [2], 0%; in [3], 80%; in assay [4] it was 30%; in assay [5], 0%; in assay [6] it was 0%. Moreover, the pest or weed control at 1000 g/ha in the assay on Solanum nigrum (SOLNI) [7] is 50%; in the assay with Setaria faberi (SETFA) [8], 30%; in [9], 100%; in assay [10], 60%; in assay [11], 0%; in assay [12] it was 0%.
As for `COC(=O)c1nc(C2CC2)nc(NCCCN2CCCCC2C)c1Cl` (stereo not drawn) [Compound 4-247, 5-Chloro-2-cyclopropyl-6-methoxycarbonyl-4-[3-(2-methyl-piperidin-1-yl)-propylamino]-pyrimidine], the pest or weed control at 1000 g/ha stood at 70% in the assay with Solanum nigrum (SOLNI) [1]; 10% with Setaria faberi (SETFA) [2]; 30% in assay [3]; 20% in assay [4]; 10% in [5]; 10% in assay [6]. For the same molecule, the pest or weed control at 1000 g/ha is 50% in the assay on Solanum nigrum (SOLNI) [7]; 20% with Setaria faberi (SETFA) [8]; 100% in assay [9]; 50% in [10]; 20% in assay [11]; 10% in assay [12].
For `COC(=O)c1nc(C2CC2)nc(NCCCc2ccccc2)c1Cl` [Compound 4-249, 5-Chloro-2-cyclopropyl-6-methoxycarbonyl-4-(3-phenylpropyl-amino)pyrimidine], the pest or weed control at 1000 g/ha in the assay on Solanum nigrum (SOLNI) [1] was determined as 80%; in the assay on Setaria faberi (SETFA) [2], 50%; in assay [3] it was 60%; in [4], 100%; in [5], 50%; in [6], 20%. Besides, the pest or weed control at 1000 g/ha turned out to be 100% with Solanum nigrum (SOLNI) [7]; 70% in the assay on Setaria faberi (SETFA) [8]; 100% in assay [9]; 90% in assay [10]; 50% in assay [11]; 30% in [12].
For the molecule `COC(=O)c1nc(C2CC2)nc(NCCCn2ccnc2)c1Cl` [Compound 4-250, 5-Chloro-2-cyclopropyl-4-[3-(imidazol-1-yl)propylamino]-6-methoxycarbonyl-pyrimidine], the pest or weed control at 1000 g/ha with Solanum nigrum (SOLNI) [1] turned out to be 40%; with Setaria faberi (SETFA) [2], 0%; in assay [3], 90%; in [4] it was 80%; in assay [5] it was 0%; in assay [6], 0%. The pest or weed control at 1000 g/ha turned out to be 70% in the assay with Solanum nigrum (SOLNI) [7]; 50% in the assay on Setaria faberi (SETFA) [8]; 100% in [9]; 100% in [10]; 30% in [11]; 0% in assay [12].

The record behind these values is patent US20110086759A1, “CHEMICAL COMPOUNDS” (SYNGENTA CROP PROTECTION, INC., priority 2007, published 2011).
